The values that follow come from PMC10341549, “Inhibitory Investigations of Acyl-CoA Derivatives against Human Lipoxygenase Isozymes” (International Journal of Molecular Sciences, 2023).

Assay type in all cases: biochemical
The target in experiment [1] is T1, h15-LOX-1 (Homo sapiens, UniProt P16050).
T1 construct: His tag; made in house
T1 sequence (P16050 1-662): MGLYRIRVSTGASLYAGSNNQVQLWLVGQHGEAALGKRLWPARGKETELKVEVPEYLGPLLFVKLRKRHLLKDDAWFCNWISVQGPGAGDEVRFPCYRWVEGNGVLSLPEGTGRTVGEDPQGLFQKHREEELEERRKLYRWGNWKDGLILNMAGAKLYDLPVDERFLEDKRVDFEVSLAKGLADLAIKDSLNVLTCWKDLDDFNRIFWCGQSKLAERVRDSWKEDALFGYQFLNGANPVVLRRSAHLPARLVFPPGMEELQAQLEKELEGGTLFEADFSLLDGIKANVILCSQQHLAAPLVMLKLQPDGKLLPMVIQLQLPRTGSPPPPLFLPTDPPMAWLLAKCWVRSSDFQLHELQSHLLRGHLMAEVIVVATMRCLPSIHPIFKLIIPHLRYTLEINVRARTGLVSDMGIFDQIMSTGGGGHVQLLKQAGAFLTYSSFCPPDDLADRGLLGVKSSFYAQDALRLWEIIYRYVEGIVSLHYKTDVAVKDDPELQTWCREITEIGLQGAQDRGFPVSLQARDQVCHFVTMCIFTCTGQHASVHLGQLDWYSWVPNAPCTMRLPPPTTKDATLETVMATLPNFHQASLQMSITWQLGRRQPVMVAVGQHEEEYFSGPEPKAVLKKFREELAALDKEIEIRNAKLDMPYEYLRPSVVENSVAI
Put plainly: Substrate activity and kinetic parameters with h15-LOX-1. As to conditions: acyl-CoAs tested at 70 µM, change in absorbance at 234 nm. The procedure: Considering that some of these acyl-CoAs could potentially be substrates for LOX isozymes, each acyl-CoA was tested at 70 µM against each LOX isozyme to establish the possibility of catalysis.
The same buffer as used to determine IC50 values for h5-LOX was used for product determination. Turnover was monitored by absorbance at 234 nm.

The target of experiment [2] is T1, h15-LOX-1. The description is as above.
A further experiment deals with T2, h15-LOX-2 (Homo sapiens, UniProt O15296).
T2 construct: His tag; made in house
T2 sequence (O15296 1-676): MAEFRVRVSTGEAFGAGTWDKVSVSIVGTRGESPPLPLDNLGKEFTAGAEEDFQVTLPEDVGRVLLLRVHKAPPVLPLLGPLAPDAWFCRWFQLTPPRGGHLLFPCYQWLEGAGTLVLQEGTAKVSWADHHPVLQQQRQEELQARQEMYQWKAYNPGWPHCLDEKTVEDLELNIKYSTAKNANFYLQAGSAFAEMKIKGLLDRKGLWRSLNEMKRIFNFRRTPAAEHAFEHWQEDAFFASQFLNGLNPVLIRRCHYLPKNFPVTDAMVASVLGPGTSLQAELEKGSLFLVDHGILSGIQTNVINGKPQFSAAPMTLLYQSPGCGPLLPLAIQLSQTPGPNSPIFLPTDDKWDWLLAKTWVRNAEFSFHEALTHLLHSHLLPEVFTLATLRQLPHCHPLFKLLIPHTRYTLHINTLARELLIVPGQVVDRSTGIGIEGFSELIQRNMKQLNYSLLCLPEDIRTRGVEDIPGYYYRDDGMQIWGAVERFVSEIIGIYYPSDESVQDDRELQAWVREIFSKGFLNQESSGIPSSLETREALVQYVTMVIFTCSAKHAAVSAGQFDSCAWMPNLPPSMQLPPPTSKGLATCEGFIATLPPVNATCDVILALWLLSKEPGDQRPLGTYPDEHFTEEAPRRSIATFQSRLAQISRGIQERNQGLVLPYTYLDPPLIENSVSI
Put plainly: Kinetic investigation of oleoyl-CoA (18:1) inhibition of h15-LOX-2. The procedure: (1) 1/v=(αKM/kcat)[([I]+Ki)/(β[I]+αKi)]×1/[S]+1/kcat×[([I]+αKi)/(β[I]+αKi)] (2) KM(app)=αKM[([I]+Ki)/[…]] (3) kcat/KM=(kcat/αKM)[(β[I]+αKi)/([I]+Ki)] (4) kcat=kcat[(β[I]+αKi)/([I]+αKi)]
These two parameters were then utilized to fit Equation (3) relative to kcat/KM (app), which yielded a β value of 0.26 +/− 0.23 (Figure 2). Given the high error for the β value, β was also determined by applying the values for α and Ki from the KM (app) plot to Equation 4 and fitted to the kcat data (Figure 3). This fit yielded a β value of 0.30 +/− 0.07, consistent with the Equation 3 fit but with a lower error value. These kinetic values indicate hyperbolic allostery, α > 1 (K-type inhibition) and β < 1 (V-type inhibition), with the kinetic change being equally observed in both KM (α = 3.2 +/− 1) and kcat (β = 0.30 +/− 0.07). […] It should be noted that the Ki values from our hyperbolic fits (82 +/− 70 nM) were dramatically lower than those determined from IC50 measurements (620 ± 60 nM), which is consistent with the more accurate nature of the hyperbolic fits relative to the IC50 fits, due to the oversimplification of the IC50 analysis.
The reactions were carried out in 25 mM HEPES buffer (pH 7.5), 0.01% Triton X-100. […] Reactions were performed at 22 °C in a 1 cm^2 quartz cuvette containing 2 mL of the according buffer for no longer than 2 min to avoid any cleavage of the acyl-coenzyme A. Using a Cary-UV Vis spectrophotometer, the fastest rates over 15 s intervals were recorded. Kinetic values were obtained by plotting the rate against the substrate concentration, followed by a hyperbolic saturation curve fit. The saturation curve fits were performed in triplicate and on separate days to ensure there was no bias. The equations used to find kinetic values were from previous studies.

Setting [3] is: h15-LOX-1, compared with published values [31].

Molecules are shown by their SMILES. pKi: −log10 of the molar value. “Also recorded” adds a separate entry of the source.

In general, Km refers to the substrate concentration at which the rate is half of its maximum. Turning to `CCCCC/C=C\C/C=C\CCCCCCCC(=O)SCCNC(=O)CCNC(=O)[C@H](O)C(C)(C)COP(=O)(O)OP(=O)(O)OC[C@H]1O[C@@H](n2cnc3c(N)ncnc32)[C@H](O)[C@@H]1OP(=O)(O)O` [Linoleoyl-CoA (18:2), linoleoyl-CoA], the figures for the “Substrate activity with h15-LOX-1” value at h15-LOX-1 [1] and at h15-LOX-1 [1] (listed as linoleoyl-CoA (18:2)) were “(Substrate)” and “substrates; also recorded: rapid substrate”, respectively. Also, the Km at h15-LOX-1 [2] (as substrate of h15-LOX-1, 22 °C) worked out at 12 µM. Also, the kcat on h15-LOX-1 [2] (as substrate of h15-LOX-1, 22 °C, listed as linoleoyl-CoA) is 7.5 (0.4) s^−1; on h15-LOX-1 [2] (as substrate of h15-LOX-1, 22 °C, listed as linoleoyl-CoA (18:2)) it was 7.5 ± 0.4 s⁻¹. Further, the “kcat fold less than free linoleic acid” value on h15-LOX-1 [2] (setting [3]) stood at 1.3 fold. For the same compound, on h15-LOX-1 [2] (setting [3]), the “kcat/KM fold less than free linoleic acid” value was found to be 7 fold.

Broadly, the pKi is the negative decadic logarithm of the Ki, by convention in mol/L. On to `CCCCCCCC/C=C\CCCCCCCC(=O)SCCNC(=O)CCNC(=O)[C@H](O)C(C)(C)COP(=O)(O)OP(=O)(O)OC[C@H]1O[C@@H](n2cnc3c(N)ncnc32)[C@H](O)[C@@H]1OP(=O)(O)O` [Oleoyl-CoA (18:1), oleoyl-coenzyme A (18:1)], for which, at h15-LOX-2, the “Type of inhibition of h15-LOX-2” value was “allosteric inhibition (i.e., partial inhibition)”. For the same compound, on h15-LOX-2 (fit of kcat data), the “β (the change in kcat), Equation 4 fit” value is reported as 0.30 +/− 0.07. Further, the “β (the change in kcat), Equation 3 fit” value at h15-LOX-2 (fit of kcat/KM (app)) is 0.26 +/− 0.23. Besides, the negative-log Ki (pKi) at h15-LOX-2 (h15-LOX-2, substrate AA, pH 7.5, 22 °C, read-out: Ki (allosteric, hyperbolic fit of KM (app), Equation 2)) is 7.09.
